According to patent US20260193179A9 (priority 2018, published 2026):
Structures can show the parent of a compound that is named as a salt.

system: Lectin Pathway; experiment: Lectin Pathway Activation Assay in Human Serum (mannan-coated ELISA, C3c detection); format: biochemical; conditions: 1% human serum
Description: Microtiter ELISA plate was coated with mannan from Saccharomyces cerevisiae (Sigma-Aldrich, M7504) for overnight at 4° C. in coating buffer [15 mM Na2CO3, 35 mM NaHCO3]. Plate was blocked with 1% bovine serum albumin (BSA) (Sigma-Aldrich, A3294) in Tris-buffered Saline (TBS) [10 mM Tris-HCl, 140 mM NaCl] for 2 hours at room temperature. […] 100 μL of this mixture were then added to the plate and plate was incubated at 37° C. for up to an hour with gentle shaking, 200 rpm. After that, plate was washed thrice in wash buffer [TBS containing 5 mM CaCl2) and 0.05% Tween-20] and 100 μL of rabbit anti human C3c (Dako, A0062) diluted 1:5000 in wash buffer were added and incubated at 37° C. for 30 minutes.

IC50 [nM]	Compound
< 500	N=C(N)c1ccc(CNC(=O)[C@@H]2CCN2C(=O)[C@@H](CCc2ccccc2)NCC(=O)O)cc1 [compound 1124]
50 to 5000	Cc1ccc(CC[C@@H](N)C(=O)N[C@@H](C)C(=O)NCc2ccc(C(=N)N)cc2)cc1 [compound 1043]
< 500	C[C@H](NC(=O)[C@H](N)CCc1ccccc1)C(=O)NCc1ccc(C(=N)N)cc1 [compound 1024]
50 to 5000	C[C@H](NC(=O)[C@H](N)CCc1cccc(Cl)c1)C(=O)NCc1ccc(C(=N)N)cc1 [compound 1081]
50 to 5000	C[C@H](NC(=O)[C@H](N)CCc1ccc(Cl)cc1)C(=O)NCc1ccc(C(=N)N)cc1 [compound 1080]
50 to 5000	N=C(N)c1ccc(CNC(=O)[C@@H]2CCN2C(=O)[C@H](N)C2Cc3ccccc3C2)cc1 [compound 1058, (S)-1-((R)-2-Amino-2-(2,3-dihydro-1H-inden-2-yl)acetyl)-N-(4-carbamimidoylbenzyl)azetidine-2-carboxamide]
500 to 50000	N=C(N)c1ccc(CNC(=O)[C@@H]2CCN2C(=O)[C@H]2Cc3ccccc3CN2)cc1 [compound 1034]
500 to 50000	CN(CC(=O)NCc1ccc(C(=N)N)cc1)C(=O)[C@H](NCC(=O)O)C1CCCCC1 [compound 1096]
50 to 5000	C[C@H](NC(=O)[C@H](N)C1Cc2ccccc2C1)C(=O)NCc1ccc2nc(N)[nH]c2c1 [compound 1059]
50 to 5000	C[C@H](NC(=O)[C@H](N)Cc1cccc2ccccc12)C(=O)NCc1ccc(C(=N)N)cc1 [compound 1092]
500 to 50000	C[C@@H](C(=O)NCc1ccc(C(=N)N)cc1)N(C)C(=O)[C@H](NCC(=O)O)C1CCCCC1 [compound 1107]
< 500	C[C@H](NC(=O)[C@@H](CCc1ccccc1)NCC(=O)O)C(=O)NCc1ccc(C(=N)N)cc1 [compound 1110]
< 500	N=C(N)c1ccc(CNC(=O)[C@@H]2CCN2C(=O)[C@H](N)CCc2ccccc2)cc1 [compound 1038]
50 to 5000	C[C@H](NC(=O)[C@H](N)CCc1cccc(F)c1)C(=O)NCc1ccc(C(=N)N)cc1 [compound 1048]
50 to 5000	N=C(N)c1ccc(CNC(=O)[C@@H]2CCCN2C(=O)[C@H](N)C2CCCCC2)cc1 [compound 1027]

Compound	IC50 [nM]
N=C(N)c1ccc(CNC(=O)[C@@H]2CCN2C(=O)[C@H](NCC(=O)O)C2CCCCC2)cc1 [compound 999, melagatran, reference compound]	500 to 50000
C[C@H](NC(=O)[C@H](N)CCc1ccc(F)cc1)C(=O)NCc1ccc(C(=N)N)cc1 [compound 1047]	50 to 5000

same assay, conditions: 1% human serum, mannan-coated plate

Compound	IC50 [nM]
Cc1nc(N)ccc1CNC(=O)[C@H](C)NC(=O)[C@H]1C[C@H](Cc2ccccc2-c2ccccc2)CN1 [compound 1373, (2R,4S)-4-([1,1′-Biphenyl]-2-ylmethyl)-N—((S)-1-(((6-amino-2-methylpyridin-3-yl)methyl)amino)-1-oxopropan-2-yl)pyrrolidine-2-carboxamide]	50 to 500
Cc1nc(N)ccc1CNC(=O)[C@H](C)NC(=O)[C@H]1C[C@H](Cc2cccc(-c3ccccc3)c2)CN1 [compound 1406, (2R,4S)-4-([1,1′-Biphenyl]-3-ylmethyl)-N—((S)-1-(((6-amino-2-methylpyridin-3-yl)methyl)amino)-1-oxopropan-2-yl)pyrrolidine-2-carboxamide]	50 to 500
Cc1nc(N)ccc1CNC(=O)[C@H](C)NC(=O)[C@H]1C[C@@H](c2ccccc2)CCN1CCC(=O)O [compound 1411, 3-((2R,4S)-2-(((S)-1-(((6-Amino-2-methylpyridin-3-yl)methyl)amino)-1-oxopropan-2-yl)carbamoyl)-4-phenylpiperidin-1-yl)propanoic acid]	50 to 500
C[C@H](NC(=O)[C@H]1C[C@@H](c2ccccc2)CCN1)C(=O)NCc1cc(Cl)ccc1-n1cnnn1 [compound 1426, (2R,4S)—N—((S)-1-((5-Chloro-2-(1H-tetrazol-1-yl)benzyl)amino)-1-oxopropan-2-yl)-4-phenylpiperidine-2-carboxamide]	< 50
Cc1nc(N)ccc1CNC(=O)[C@H](C)NC(=O)[C@@H](CCc1ccccc1)NCc1ccc(C(=O)N2CCOCC2)cc1 [compound 1381, (R)—N—((S)-1-(((6-Amino-2-methylpyridin-3-yl)methyl)amino)-1-oxopropan-2-yl)-2-((4-(morpholine-4-carbonyl)benzyl)amino)-4-phenylbutanamide]	500 to 5000
C[C@H](NC(=O)[C@H]1C[C@H](Cc2ccccc2-c2ccc(Cl)s2)CN1)C(=O)NCc1cc(Cl)ccc1-n1cnnn1 [compound 1409, (2R,4S)—N—((S)-1-((5-Chloro-2-(1H-tetrazol-1-yl)benzyl)amino)-1-oxopropan-2-yl)-4-(2-(5-chlorothiophen-2-yl)benzyl)pyrrolidine-2-carboxamide]	500 to 5000
Cc1nc(N)ccc1CNC(=O)[C@H](C)NC(=O)[C@H]1C[C@H](Cc2cccc(C(=O)N3CCC3)c2)CN1 [compound 1420, (2R,4S)—N—((S)-1-(((6-Amino-2-methylpyridin-3-yl)methyl)amino)-1-oxopropan-2-yl)-4-(3-(azetidine-1-carbonyl)benzyl)pyrrolidine-2-carboxamide]	50 to 500
C[C@H](NC(=O)[C@H]1C[C@H](c2ccccc2)CN1)C(=O)NCc1cc(Cl)cc(Cl)c1O [compound 1395, (2R,4R)—N—((S)-1-((3,5-dichloro-2-hydroxybenzyl)amino)-1-oxopropan-2-yl)-4-phenylpyrrolidine-2-carboxamide]	5000 to 50000
Cc1nc(N)ccc1CNC(=O)[C@H](C)NC(=O)[C@H]1C[C@H](Cc2ccccc2-c2ccc(Cl)s2)CN1 [compound 1410, (2R,4S)—N—((S)-1-(((6-Amino-2-methylpyridin-3-yl)methyl)amino)-1-oxopropan-2-yl)-4-(2-(5-chlorothiophen-2-yl)benzyl)pyrrolidine-2-carboxamide]	500 to 5000
COc1cc(C[C@@H]2CN[C@@H](C(=O)N[C@@H](C)C(=O)NCc3ccc(N)nc3C)C2)cc(OC)c1 [compound 1407, (2R,4S)—N—((S)-1-(((6-Amino-2-methylpyridin-3-yl)methyl)amino)-1-oxopropan-2-yl)-4-(3,5-dimethoxybenzyl)pyrrolidine-2-carboxamide]	50 to 500
Cc1nc(N)ccc1CNC(=O)[C@H](C)NC(=O)[C@H]1C[C@H](Cc2cc(-c3ccccc3)cs2)CN1 [compound 1399, (2R,4R)—N—((S)-1-(((6-Amino-2-methylpyridin-3-yl)methyl)amino)-1-oxopropan-2-yl)-4-((4-phenylthiophen-2-yl)methyl)pyrrolidine-2-carboxamide]	50 to 500
CC(=O)Nc1ccc(CCN[C@H](CCc2ccccc2)C(=O)N[C@@H](C)C(=O)NCc2ccc(N)nc2C)cc1 [compound 1368, (R)-2-((4-Acetamidophenethyl)amino)-N—((S)-1-(((6-amino-2-methylpyridin-3-yl)methyl)amino)-1-oxopropan-2-yl)-4-phenylbutanamide]	50 to 500
C[C@H](NC(=O)[C@H]1C[C@H](c2ccccc2)CN1)C(=O)NCc1cnc2c(c1)c(Cl)cn2C [compound 1442, (2R,4R)—N—((S)-1-(((3-Chloro-1-methyl-1H-pyrrolo[2,3-b]pyridin-5-yl)methyl)amino)-1-oxopropan-2-yl)-4-phenylpyrrolidine-2-carboxamide]	500 to 5000
CCCCCN[C@H](CCc1ccccc1)C(=O)N[C@@H](C)C(=O)NCc1ccc(N)nc1C [compound 1377, (R)—N—((S)-1-(((6-Amino-2-methylpyridin-3-yl)methyl)amino)-1-oxopropan-2-yl)-2-(pentylamino)-4-phenylbutanamide]	50 to 500
Cc1nc(N)ccc1CNC(=O)[C@H](C)NC(=O)[C@H]1C[C@@H](c2ccccc2)CCN1CC(=O)O [compound 1398, 2-((2R,4S)-2-(((S)-1-(((6-Amino-2-methylpyridin-3-yl)methyl)amino)-1-oxopropan-2-yl)carbamoyl)-4-phenylpiperidin-1-yl)acetic acid]	50 to 500

target: mMASP-2 (Mus musculus, UniProt Q91WP0); experiment: Enzymatic assay for mMASP-2; format: biochemical; conditions: not given
Sequence (Q91WP0 20-685): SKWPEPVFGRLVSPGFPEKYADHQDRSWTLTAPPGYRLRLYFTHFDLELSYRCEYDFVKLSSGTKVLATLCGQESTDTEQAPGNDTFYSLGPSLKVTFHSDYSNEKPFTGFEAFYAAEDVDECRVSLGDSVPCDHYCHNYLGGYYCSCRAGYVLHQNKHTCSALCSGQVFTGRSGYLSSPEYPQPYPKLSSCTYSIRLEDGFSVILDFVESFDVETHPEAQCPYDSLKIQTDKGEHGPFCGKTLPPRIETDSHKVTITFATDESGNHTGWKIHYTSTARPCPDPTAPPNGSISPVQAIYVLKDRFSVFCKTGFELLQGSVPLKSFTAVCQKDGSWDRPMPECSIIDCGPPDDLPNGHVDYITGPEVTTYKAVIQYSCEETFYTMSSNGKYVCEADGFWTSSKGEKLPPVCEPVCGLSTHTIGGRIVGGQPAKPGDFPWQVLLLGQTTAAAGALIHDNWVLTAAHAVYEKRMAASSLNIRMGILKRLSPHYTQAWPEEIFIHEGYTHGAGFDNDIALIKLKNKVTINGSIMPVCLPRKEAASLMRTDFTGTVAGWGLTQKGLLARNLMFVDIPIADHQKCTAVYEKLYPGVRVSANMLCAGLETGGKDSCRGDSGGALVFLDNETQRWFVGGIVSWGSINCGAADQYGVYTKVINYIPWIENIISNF

Ki [nM]	Compound
< 500	C[C@H](NC(=O)[C@H](N)CCc1cccc(Cl)c1)C(=O)NCc1ccc(C(=N)N)cc1 [compound 1081]
< 500	C[C@H](NC(=O)[C@H]1C[C@H](c2ccccc2)CN1)C(=O)NCc1ccc2c(N)nccc2c1 [compound 1090]
< 500	C[C@H](NC(=O)[C@H](N)C1Cc2ccccc2C1)C(=O)NCc1ccc2nc(N)[nH]c2c1 [compound 1059]
< 500	C[C@H](NC(=O)[C@H](N)CCc1cc(Cl)cc(Cl)c1)C(=O)NCc1ccc(C(=N)N)cc1 [compound 1118]
< 500	C[C@H](NC(=O)[C@H]1Cc2c([nH]c3ccccc23)CN1)C(=O)NCc1ccc(C(=N)N)cc1 [compound 1097]
< 500	C[C@H](NC(=O)c1cc(-c2ccccc2)c[nH]1)C(=O)NCc1ccc(C(=N)N)cc1 [compound 1030]

Compound	Ki [nM]
C[C@H](NC(=O)[C@H]1C[C@H](c2ccccc2)CN1)C(=O)NCc1ccc(/C(N)=N/O)cc1 [compound 1292]	10000 to 25000
Cc1nc(N)ccc1CNC(=O)[C@H](C)NC(=O)[C@H]1C[C@@H](c2cccc(CN)c2)CN1 [compound 1291, (2R,4S)—N—((S)-1-(((6-Amino-2-methylpyridin-3-yl)methyl)amino)-1-oxopropan-2-yl)-4-(3-(aminomethyl)phenyl)pyrrolidine-2-carboxamide Dihydrochloride]	10000 to 25000
Cc1cccc(CNC(=O)[C@H](C)NC(=O)[C@H]2C[C@H](Cc3ccccc3)CN2)c1-n1ncnn1 [compound 1437, (2R,4S)-4-Benzyl-N—((S)-1-((3-methyl-2-(2H-tetrazol-2-yl)benzyl)amino)-1-oxopropan-2-yl)pyrrolidine-2-carboxamide]	2500 to 10000
C[C@H](NC(=O)[C@H](N)CCc1ccccc1)C(=O)NCc1cc(Cl)ccc1-n1cnnn1 [compound 1325, (R)-2-amino-N—((S)-1-((5-chloro-2-(1H-tetrazol-1-yl)benzyl)amino)-1-oxopropan-2-yl)-4-phenylbutanamide]	10000 to 25000
